Entries after “also recorded” stand apart in the source; their conditions may differ.
What was measured:
[1] = tested on: cytoplasmic extract-dependent modification of the 5′ VHL E3 target site; test: Peptide competition of cytoplasmic extract-dependent modification of GAL-HIF-1α 344-553, in vitro VHL E3 ubiquitylation; type: biochemical, human; conditions: 12.5 μM peptide, RCC4 cytoplasmic extract
Method: The E1 activating enzyme used in ubiquitylation assays was either obtained from Affiniti Research (Exeter, UK) or purified from BL21 (DE3) E. coli transfected with plasmid expressing His6-tagged mouse E1. His6-E1 was purified by Ni^2+-agarose affinity chromatography. After dialysis against phosphate buffered saline, glycerol was added to 10% (vol/vol) and 25 ng/μl aliquots stored at −80° C. Human CDC34 recombinant E2 enzyme was from Affiniti Research (Exeter, UK). VHL E3 was obtained by anti-HA immunoprecipitation from stably transfected 7860-VHLHA cell lysates (Iliopoulos et al). GAL-HIF-1α substrate was prepared by anti-GAL immunoprecipitation from [^35S] methionine-labeled TnT rabbit reticulocyte (Promega) translates. Each 40 μl ubiquitylation reaction consisted of 4 μl of 5 mg/ml ubiquitin, 4 μl of 10×ATP regenerating system (20 mM Tris pH7.5, 10 mM ATP, 10 mM magnesium acetate, 300 mM creatine phosphate, 0.5 mg/ml creatine phosphokinase), 2 μl, E1, 3 μl E2, 6 μl VHL E3 immunopurified on protein G sepharose, 6 μl GAL-HIF-1α substrate immunopurified on agarose beads. Reactions were incubated at 30° C. for 2 h with occasional mixing, stopped by the addition of SDS sample buffer and analysed by SDS-PAGE and autoradiography. Cytoplasmic extract-based ubiquitylation assays have been previously described (Cockman).
It has been shown above that the 3′ VHL E3 target site responds to oxygen level via hydroxylation at proline residue 564. This praline residue forms part of a potential motif conserved between the 5′ and 3′ target sites. Mutation of the corresponding proline residue (P402A) in the 5′ target site also results in functional inactivation. It was possible therefore that proline residue 402 was also a target for regulatory hydroxylation, To test this we asked whether polypeptides corresponding to the 3′ VHL E3 target site could interfere with the cytoplasmic extract-dependent modification of the 5′ VHL E3 target site. […]

Hep3B and U2OS cells = test: Immunoblot of HIF-1α and CA-9 in cells exposed to inhibitor; type: cell-based, human; conditions: 0.1 or 1 mM, 6 hours; for HIF-1α level (immunoblot): normoxic culture
From the text: We went on to test a series of 2-oxoglutarate analogues which act as competitive inhibitors of this class of enzyme (29) for ability to inhibit HIF-PH as assessed by the ability of cell extracts to modify either HIF polypeptide (19:WT) or a HIF fusion protein (Gal/HIF-1α549-582/VP16) so as to promote pVHL capture. Concordant results were obtained with both sources of HIF sequence. In one such experiment the effect of N-oxalylglycine on pVHL capture by a biotinylated HIF polypeptides as substrate was monitored. The WT:19 and 19:Pro564Hyp polypeptides described above were used as substrates. […] Inhibition by N-Oxalylglycine was overcome by addition of 5 mM 2-oxoglutarate. As previously, 19:Pro564Hyp captured pVHL efficiently without modification by cell extract, and this was not influenced by exposure to N-oxalylglycine. […] We also used a 2-oxoglutarate dependent dioxygenase, phytanoyl-CoA α-hydroxylase (30), together with a readily available unnatural substrate (isovaleryl CoA) (31) to deplete the cell extract of 2-oxoglutarate produced by the citric acid cycle; as predicted, this prevented the subsequent modification of HIF polypeptide. The effect of dimethyl-oxalyglycine on HIF-1α expression was also studied. HIF-1α immunoblot analysis of extracts of Hep3B and U2OS cells exposed to dimethyl-oxalylgylcine (0, 0.1 or 1.0 mM) for 6 hours was carried out.
Hep3B and U2OS cells were exposed to either 0.1 mM or 1 mM dimethyloxalylglycine for 6 hours, harvested and assayed by immunoblotting (Western blotting) for changes in the level of HIF-1α and CA-9 expression. Controls, where no inhibitor was added, were also performed. […] Upregulation of HIF-1α increased with increasing concentration of dimethyloxalylglycine, whilst the level of CA-9 expression was similar after exposure to both 0.1 and 1 mM of dimethyloxalylglycine.

Hep3b and U20S cells = test: Gal4/HIF-1α 775-826 carboxy terminal transactivator luciferase reporter assay; type: cell-based, human; conditions: normoxia or 2% hypoxia overnight
Method: Hep3b and U20S cells were co-transfected with a mixture of three plasmids; pUAS.tk.luc, encoding a GAL 4 responsive luciferase gene, pgal-hif775-826, a mammalian expression plasmid leading to expression of a fusion between a 147 amino acid DNA binding domain of GAL 4 and the carboxy terminal transactivator of human HIF-1 alpha, and pCMV.beta-gal, encoding a constitutively expressed beta-galactosidase gene as a transfection control.
48 hours following transfection, cells were incubated in normoxia or 2% hypoxia overnight in the presence or absence of dimethyl oxalyl glycine as indicated. Cell lysates were assayed for luciferase and beta galactosidase activity and the relative luciferase activity in each sample determined.

HIF = test: Induction of HIF in tissue culture by esterified equivalents; type: cell-based; conditions: In-vivo esterified equivalent

| Compound | competition of cytoplasmic extract effect on VHL-dependent ubiquitylation of GAL 344-553 [1] | CA-9 expression (immunoblot) (Hep3B and U2OS cells) | HIF-1α level (immunoblot) (Hep3B and U2OS cells) | HIF-1α level (immunoblot) (Hep3B and U2OS cells; listed as dimethyl-oxalylgylcine) | relative luciferase activity (carboxy terminal transactivator) (Hep3b and U20S cells) | Induction of HIF in tissue culture (HIF) |
| --- | --- | --- | --- | --- | --- | --- |
| 19:Pro564Hyp: polypeptide (HIF-1α residues 556-574) containing a trans-4-hydroxy-S-proline residue at position 564 | unable to compete | – | – | – | – | – |
| 19:WT: polypeptide comprising HIF-1α residues 556 to 574 | completely ablate the cytoplasmic extract effect | – | – | – | – | – |
| COC(=O)CNC(=O)C(=O)OC [dimethyloxalylglycine] | – | Clear upregulation | increase intracellular levels of HIF-1; also recorded: Clear upregulation | strongly induced | enhanced activity of the carboxy terminal transactivator | Yes |
